Results reported in patent US9586951B2 (FUJIFILM Corporation, priority 2013, dated 2017).

Columns and labels:
[1] = tested on: human non-small cell lung cancer cell line NCI-H460; assay: Cell proliferation inhibition test by sensitivity-enhancing to ionizing radiation (Cell Titer Glo); assay type: cell-based; details: concentration in which SER became 2, NCI-H460 cells, ionizing radiation 2 Gy, cultured 120 hour
How it was run: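 Radiosensitisation measured as SER, a ratio of Cell Titer Glo luminescence in irradiated vs unirradiated plates relative to DMSO; SER2, the concentration yielding SER 2, came from sigmoidal regression. Compound (0.1% DMSO) was given 24 h post-seeding, 2 Gy applied 30 min later, then 120 hour culture at 37° C.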

ATM = molecular target: T1, ATM (Homo sapiens, UniProt Q13315); assay: ATM inhibition test (phosphorylation of Chk2 generated by ionizing radiation, AlphaScreen SureFire); assay type: cell-based; details: phosphorylated Chk2 in NCI-H460 cells, ionizing radiation 8Gy, 1 hour after test compound treatment; read-out: ATM inhibitory activity
T1 construct: detecting phosphorylation of Chk2 in a human non-small cell lung cancer cell line NCI-H460 (ATCC company); host or cells: NCI-H460 human non-small cell lung cancer cells
How it was run: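 In NCI-H460 cells, radiation-triggered Chk2 phosphorylation (8Gy, 1 h) is detected by AlphaScreen SureFire following 1 h compound exposure.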

T1 sequence (Q13315 whole entry): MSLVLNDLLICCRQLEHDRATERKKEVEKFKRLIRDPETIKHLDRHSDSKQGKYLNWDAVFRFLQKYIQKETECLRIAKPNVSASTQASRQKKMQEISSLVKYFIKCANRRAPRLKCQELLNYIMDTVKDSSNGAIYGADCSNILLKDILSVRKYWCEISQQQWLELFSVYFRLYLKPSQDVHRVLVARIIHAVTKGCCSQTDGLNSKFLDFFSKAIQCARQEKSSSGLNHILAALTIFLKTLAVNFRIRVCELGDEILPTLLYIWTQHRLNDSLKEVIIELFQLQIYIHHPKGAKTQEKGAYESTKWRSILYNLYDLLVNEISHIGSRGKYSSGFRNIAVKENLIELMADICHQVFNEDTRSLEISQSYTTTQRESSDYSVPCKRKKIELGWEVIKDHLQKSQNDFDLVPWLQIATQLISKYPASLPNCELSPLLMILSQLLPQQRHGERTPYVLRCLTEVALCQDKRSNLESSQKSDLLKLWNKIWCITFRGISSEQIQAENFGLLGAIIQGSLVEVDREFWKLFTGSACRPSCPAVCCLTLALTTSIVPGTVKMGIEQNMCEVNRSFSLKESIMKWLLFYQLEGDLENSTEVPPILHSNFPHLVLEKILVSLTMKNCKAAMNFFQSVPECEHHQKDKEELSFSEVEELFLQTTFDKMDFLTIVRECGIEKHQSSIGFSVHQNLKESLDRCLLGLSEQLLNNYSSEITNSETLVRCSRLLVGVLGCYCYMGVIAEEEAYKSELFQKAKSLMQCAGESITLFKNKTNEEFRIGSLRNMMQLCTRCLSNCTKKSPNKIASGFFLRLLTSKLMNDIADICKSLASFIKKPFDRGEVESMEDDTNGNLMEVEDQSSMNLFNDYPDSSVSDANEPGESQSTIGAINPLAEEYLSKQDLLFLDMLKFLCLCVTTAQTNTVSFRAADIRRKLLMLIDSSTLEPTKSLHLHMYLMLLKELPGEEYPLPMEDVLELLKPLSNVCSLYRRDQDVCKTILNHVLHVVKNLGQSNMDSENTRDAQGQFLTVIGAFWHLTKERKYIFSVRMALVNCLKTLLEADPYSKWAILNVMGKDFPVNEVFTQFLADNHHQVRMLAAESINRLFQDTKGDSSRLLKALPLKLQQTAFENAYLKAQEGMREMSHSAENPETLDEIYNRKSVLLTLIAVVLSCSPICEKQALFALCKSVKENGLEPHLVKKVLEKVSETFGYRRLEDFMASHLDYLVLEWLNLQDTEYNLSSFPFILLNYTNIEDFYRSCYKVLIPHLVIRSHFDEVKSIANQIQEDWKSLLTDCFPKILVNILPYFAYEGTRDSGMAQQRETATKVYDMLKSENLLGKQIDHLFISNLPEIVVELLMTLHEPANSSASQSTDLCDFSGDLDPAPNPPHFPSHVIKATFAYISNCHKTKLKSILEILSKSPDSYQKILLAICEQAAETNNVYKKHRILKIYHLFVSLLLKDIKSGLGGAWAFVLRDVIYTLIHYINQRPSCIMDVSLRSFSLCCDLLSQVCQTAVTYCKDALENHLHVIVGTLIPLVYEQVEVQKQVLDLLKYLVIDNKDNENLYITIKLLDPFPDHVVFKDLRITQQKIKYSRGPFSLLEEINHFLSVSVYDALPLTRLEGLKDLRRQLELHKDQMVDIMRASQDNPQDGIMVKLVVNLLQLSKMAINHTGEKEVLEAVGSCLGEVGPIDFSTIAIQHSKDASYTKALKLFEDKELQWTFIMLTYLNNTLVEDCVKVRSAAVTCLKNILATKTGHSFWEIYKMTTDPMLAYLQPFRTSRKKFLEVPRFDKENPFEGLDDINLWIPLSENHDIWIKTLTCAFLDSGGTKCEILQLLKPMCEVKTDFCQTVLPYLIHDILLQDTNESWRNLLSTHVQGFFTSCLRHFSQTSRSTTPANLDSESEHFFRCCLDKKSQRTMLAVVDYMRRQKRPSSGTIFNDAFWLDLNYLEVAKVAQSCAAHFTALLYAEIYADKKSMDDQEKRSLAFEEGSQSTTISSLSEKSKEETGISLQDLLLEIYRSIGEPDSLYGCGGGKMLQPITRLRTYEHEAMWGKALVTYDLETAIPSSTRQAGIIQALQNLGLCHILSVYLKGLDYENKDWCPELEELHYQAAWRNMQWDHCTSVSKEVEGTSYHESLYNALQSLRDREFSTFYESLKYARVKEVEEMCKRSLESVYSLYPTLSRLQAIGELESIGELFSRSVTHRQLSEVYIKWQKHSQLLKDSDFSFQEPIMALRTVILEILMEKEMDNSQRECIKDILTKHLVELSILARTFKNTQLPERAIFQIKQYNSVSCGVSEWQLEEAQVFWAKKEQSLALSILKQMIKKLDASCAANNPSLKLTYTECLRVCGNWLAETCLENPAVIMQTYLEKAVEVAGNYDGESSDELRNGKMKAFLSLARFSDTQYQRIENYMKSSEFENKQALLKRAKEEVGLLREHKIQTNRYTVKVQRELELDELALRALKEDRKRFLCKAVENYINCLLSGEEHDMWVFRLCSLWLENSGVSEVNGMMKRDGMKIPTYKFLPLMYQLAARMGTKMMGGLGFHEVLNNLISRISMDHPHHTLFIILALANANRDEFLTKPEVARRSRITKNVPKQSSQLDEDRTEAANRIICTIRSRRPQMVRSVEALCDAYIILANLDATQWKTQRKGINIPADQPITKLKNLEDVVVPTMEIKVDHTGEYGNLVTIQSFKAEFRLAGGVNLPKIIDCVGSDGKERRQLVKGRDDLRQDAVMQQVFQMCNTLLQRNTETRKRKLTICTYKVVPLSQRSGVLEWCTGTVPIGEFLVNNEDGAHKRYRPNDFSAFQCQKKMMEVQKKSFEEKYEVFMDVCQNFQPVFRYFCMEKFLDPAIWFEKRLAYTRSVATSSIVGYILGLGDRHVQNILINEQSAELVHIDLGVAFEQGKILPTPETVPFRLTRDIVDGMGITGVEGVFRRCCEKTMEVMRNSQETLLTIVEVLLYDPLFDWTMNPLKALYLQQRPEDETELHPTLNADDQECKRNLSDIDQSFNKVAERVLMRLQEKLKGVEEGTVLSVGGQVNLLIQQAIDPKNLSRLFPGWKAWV

Row | IC50 (ATM) [µM] | SMILES | SER2 (concentration at which the radiation sensitivity-enhancement ratio reaches 2) ([1]; Homo sapiens, NCI-H460, 120 h) [nM] | SER2 (concentration at which the radiation sensitivity-enhancement ratio reaches 2) [1] [nM] | IC50 ([1]; read-out: SER2) [µM]
1 | < 0.1 | O=c1cc(N2CCOCC2)cc(-c2cccc3c2Sc2ccc(N[C@@H]4CCCC[C@@H]4N4CCOCC4)cc2S3)[nH]1 [Example 1-48-2, 4-Morpholino-6-(7-(((1R,2S)-2-morpholinocyclohexyl)amino)thianthren-1-yl)pyridin-2(1H)-one] | < 100 | – | –
2 | 0.1 to 0.5 | CNc1ncc(CNc2ccc3c(c2)Cc2cccc(-c4cc(N5CCOCC5)cc(=O)[nH]4)c2O3)cn1 [Example 2-2-16, 6-(7-(((2-(Methylamino)pyrimidin-5-yl)methyl)amino)-9H-xanthen-4-yl)-4-morpholino pyridin-2(1H)-one] | 100 to 500 | – | –
3 | < 0.1 | COC[C@H](CN1CCOC[C@H]1C)Nc1ccc2c(c1)Sc1cccc(-c3cc(N4CCOCC4)cc(=O)[nH]3)c1S2 [Example 1-46-4, 6-(7-(((S)-1-Methoxy-3-((R)-3-methylmorpholino)propan-2-yl)amino)thianthren-1-yl)-4-morpholino pyridin-2(1H)-one] | 100 to 500 | – | –
4 | < 0.1 | COc1cccnc1CNc1ccc2c(c1)Sc1cccc(-c3cc(N4CCOCC4)cc(=O)[nH]3)c1O2 [Example 4-4-22, 6-(8-(((3-Methoxypyridin-2-yl)methyl)amino)phenoxathiin-4-yl)-4-morpholino pyridin-2(1H)-one] | 500 to 2000 | – | –
5 | 0.1 to 0.5 | Cc1cccc(C(CO)Nc2ccc3c(c2)Cc2cccc(-c4cc(N5CCOCC5)cc(=O)[nH]4)c2O3)n1 (single isomer, unassigned) [Example 2-14-92-2, 6-(7-((2-hydroxy-1-(6-methylpyridin-2-yl)ethyl)amino)-9H-xanthen-4-yl)-4-morpholinopyridin-2(1H)-one] | < 100 | – | –
6 | < 0.1 | O=c1cc(N2CCOCC2)cc(-c2cccc3c2Oc2ccc(NCc4cncc(N5CCC5)c4)cc2C3)[nH]1 [Example 2-2-69, 6-(7-(((5-(Azetidin-1-yl)pyridin-3-yl)methyl)amino)-9H-xanthen-4-yl)-4-morpholino pyridin-2(1H)-one] | 500 to 2000 | – | –
7 | < 0.1 | COCC(CN1CC2CCC(C1)O2)Nc1ccc2c(c1)Sc1cccc(-c3cc(N4CCOCC4)cc(=O)[nH]3)c1S2 [Example 1-46-10, 6-(7-(((2S)-1-(8-Oxa-3-azabicyclo[3.2. l]octan-3-yl)-3-methoxypropan-2-yl)amino)thianthren-1-yl)-4-morpholino pyridin-2(1H)-one] | 100 to 500 | – | –
8 | < 0.1 | O=c1cc(N2CCOCC2)cc(-c2c(F)ccc3c2Oc2ccc(NCc4cccc(Cl)n4)cc2C3)[nH]1 [Example 2-46-1, 6-(7-(((6-Chloropyridin-2-yl)methyl)amino)-3-fluoro-9H-xanthen-4-yl)-4-morpholinopyridin-2(1H)-one] | < 100 | – | –
9 | < 0.1 | Cc1ccc(C(Nc2ccc3c(c2)Sc2cccc(-c4cc(N5CCOCC5)cc(=O)[nH]4)c2S3)C2CCCN(C)C2)nc1 (centres unmarked) [Example 1-22-10, 6-(7-(((1-Methylpiperidin-3-yl)(5-methylpyridin-2-yl)methyl)amino)thianthren-1-yl)-4-morpholino pyridin-2(1H)-one] | 100 to 500 | – | –
10 | < 0.1 | Cc1cncc(C(C)Nc2ccc3c(c2)Sc2cccc(-c4cc(N5CCOCC5)cc(=O)[nH]4)c2O3)c1 (centres unmarked) [Example 4-4-29, 6-(8-((1-(5-Methylpyridin-3-yl)ethyl)amino)phenoxathiin-4-yl)-4-morpholino pyridin-2(1H)-one] | 100 to 500 | – | –
11 | < 0.1 | [2H]C([2H])([2H])C(Nc1ccc2c(c1)Sc1cccc(-c3cc(N4CCOCC4)cc(=O)[nH]3)c1S2)c1cccc(F)n1 (centres unmarked) [Example 1-12-134, 4-Morpholino-6-(7-((2,2,2-trideutero-1-(6-fluoropyridin-2-yl)ethyl)amino)thianthren-1-yl) pyridin-2(1H)-one] | 100 to 500 | – | –
12 | < 0.1 | Cc1nccc(C(C)Nc2ccc3c(c2)Sc2cccc(-c4cc(N5CCOCC5)cc(=O)[nH]4)c2S3)n1 (single isomer, unassigned) [Example 1-12-141-1, 6-(7-((1-(2-methylpyrimidin-4-yl)ethyl)amino)thianthren-1-yl)-4-morpholinopyridin-2(1H)-one] | 100 to 500 | – | –
13 | < 0.1 | COC[C@H](CN1CCO[C@H](C)C1)Nc1ccc2c(c1)Sc1cccc(-c3cc(N4CCOCC4)cc(=O)[nH]3)c1S2 [Example 1-46-7, 6-(7-(((S)-1-Methoxy-3-((R)-2-methylmorpholino)propan-2-yl)amino)thianthren-1-yl)-4-morpholino pyridin-2(1H)-one] | 100 to 500 | – | –
14 | < 0.1 | Cc1cnc(C(CCN(C)C)Nc2ccc3c(c2)Sc2cccc(-c4cc(N5CCOCC5)cc(=O)[nH]4)c2S3)cn1 (single isomer, unassigned) [Example 1-22-12-2, 6-(7-((3-(dimethylamino)-1-(5-methylpyrazin-2-yl)propyl)amino)thianthren-1-yl)-4-morpholinopyridin-2(1H)-one] | – | < 100 | –
15 | < 0.1 | COCCOCC(Nc1ccc2c(c1)Sc1cccc(-c3cc(N4CCOCC4)cc(=O)[nH]3)c1S2)c1ncc(C)cn1 (centres unmarked) [Example 1-12-98, 6-(7-((2-(2-Methoxyethoxy)-1-(5-methylpyrimidin-2-yl)ethyl)amino)thianthren-1-yl)-4-morpholino pyridin-2(1H)-one] | 100 to 500 | – | –
16 | < 0.1 | Cc1cccc(CNc2ccc3c(c2)Cc2ccnc(-c4cc(N5CCOCC5)cc(=O)[nH]4)c2O3)n1 [Example 2-41-2, 6-(7-(((6-Methylpyridin-2-yl)methyl)amino)-5H-chromeno[2,3-c]pyridin-1-yl)-4-morpholino pyridin-2 (1H)-one] | 100 to 500 | – | –
17 | < 0.1 | Cc1ccc(C(Nc2ccc3c(c2)Sc2cccc(-c4cc(N5CCOCC5)cc(=O)[nH]4)c2S3)C2CCN(C)CC2)nc1 (single isomer, unassigned) [Example 1-51-2] | – | 100 to 500 | –
18 | < 0.1 | O=c1cc(N2CCOCC2)cc(-c2cccc3c2Oc2ccc(NCc4ccnc(Br)c4)cc2C3)[nH]1 [Example 2-2-53, 6-(7-(((2-Bromopyridin-4-yl)methyl)amino)-9H-xanthen-4-yl)-4-morpholino pyridin-2 (1H)-one] | 500 to 2000 | – | –
19 | < 0.1 | O=c1cc(N2CCOCC2)cc(-c2cccc3c2Oc2ccc(NCc4cncc(N5CCCC5)c4)cc2S3)[nH]1 [Example 4-4-7, 4-Mmorpholino-6-(8-(((5-(pyrrolidin-1-yl)pyridin-3-yl)methyl)amino)phenoxathiin-4-yl)pyridin-2(1H)-one] | 100 to 500 | – | –
20 | < 0.1 | COC[C@H](CN1CCOC(C)(C)C1)Nc1ccc2c(c1)Sc1cccc(-c3cc(N4CCOCC4)cc(=O)[nH]3)c1S2 [Example 1-46-9, (S)-6-(7-((1-(2,2-Dimethylmorpholino)-3-methoxypropan-2-yl)amino)thianthren-1-yl)-4-morpholino pyridin-2(1H)-one] | 100 to 500 | – | –
21 | < 0.1 | COc1ccnc(C(C)Nc2ccc3c(c2)Sc2cccc(-c4cc(N5CCOCC5)cc(=O)[nH]4)c2S3)n1 (centres unmarked) [Example 1-12-77, 6-(7-((1-(4-Methoxypyrimidin-2-yl)ethyl)amino)thianthren-1-yl)-4-morpholino pyridin-2(1H)-one] | 100 to 500 | – | –
22 | < 0.1 | Cc1ccc(C(Nc2ccc3c(c2)Sc2cccc(-c4cc(N5CCOCC5)cc(=O)[nH]4)c2S3)C2CN(C)CCO2)nc1 (single isomer, unassigned) [Example 1-52-2, 6-(7-(((4-methylmorpholin-2-yl)(5-methylpyridin-2-yl)methyl)amino)thianthren-1-yl)-4-morpholinopyridin-2(1H)-one] | – | < 100 | –
23 | < 0.1 | O=c1cc(N2CCOCC2)cc(-c2cccc3c2Oc2ccc(NCc4cncc(-n5cccc5)c4)cc2C3)[nH]1 [Example 2-2-58, 6-(7-(((5-(1H-Pyrrol-1-yl)pyridin-3-yl)methyl)amino)-9H-xanthen-4-yl)-4-morpholino pyridin-2(1H)-one] | 500 to 2000 | – | –
24 | < 0.1 | N#Cc1ccnc(CNc2ccc3c(c2)Sc2cccc(-c4cc(N5CCOCC5)cc(=O)[nH]4)c2O3)c1 [Example 4-4-28, 2-(((6-(4-Morpholino-6-oxo-1,6-dihydropyridin-2-yl)phenoxathiin-2-yl)amino)methyl) isonicotinonitrile] | 100 to 500 | – | –

Row | SMILES | IC50 (ATM) [µM] | SER2 (concentration at which the radiation sensitivity-enhancement ratio reaches 2) ([1]; Homo sapiens, NCI-H460, 120 h) [nM] | SER2 (concentration at which the radiation sensitivity-enhancement ratio reaches 2) [1] [nM] | IC50 ([1]; read-out: SER2) [µM]
25 | O=c1cc(N2CCOCC2)cc(-c2cccc3c2Sc2ccc(NCc4ccnc(Cl)c4)cc2S3)[nH]1 [Example 1-12-18] | < 0.1 | – | – | 0.1 to 0.5
